Results reported in patent US7030125B2, “Isothiazole and isoxazole compounds as transforming growth factor (TGF) inhibitors” (Pfizer, Inc., priority 2002, dated 2006).

Target: T1, ALK-5 (TβRI) (Homo sapiens, UniProt P36897)
T1 construct: using either the kinase domain of ALK5 with Smad3 as substrate; GST
T1 sequence (P36897 205-495 limits assumed): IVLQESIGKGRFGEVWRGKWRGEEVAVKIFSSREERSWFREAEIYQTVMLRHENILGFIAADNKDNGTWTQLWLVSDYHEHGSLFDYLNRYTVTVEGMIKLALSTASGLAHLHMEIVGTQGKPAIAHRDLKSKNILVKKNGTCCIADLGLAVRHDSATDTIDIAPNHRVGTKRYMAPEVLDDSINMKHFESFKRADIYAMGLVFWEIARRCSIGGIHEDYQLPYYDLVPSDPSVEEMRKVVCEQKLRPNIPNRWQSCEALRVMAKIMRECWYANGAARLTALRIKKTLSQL
Assay: ALK-5 (TβRI) Kinase Assay
Format: biochemical
Conditions: GST-ALK5 with GST-Smad3 as substrate; read-out: TβRIIC50 value
Description: The kinase assays were performed with 65 nM GST-ALK5 and 84 nM GST-Smad3 in 50 mM HEPES, 5 mM MgCl2, 1 mM CaCl2, 1 mM dithiothreitol, and 3_M ATP. Reactions were incubated with 0.5_Ci of [33 P]_ATP for 3 h at 30° C. Phosphorylated protein was captured on P-81 paper (Whatman, Maidstone, England), washed with 0.5% phosphoric acid, and counted by liquid scintillation. Alternatively, Smad3 or Smad1 protein was also coated onto FlashPlate Sterile Basic Microplates (PerkinElmer Life Sciences, Boston, Mass.). Kinase assays were then performed in Flash-Plates with same assay conditions using either the kinase domain of ALK5 with Smad3 as substrate or the kinase domain of ALK6 (BMP receptor) with Smad1 as substrate. Plates were washed three times with phosphate buffer and counted by TopCount (Packard Bio-science, Meriden, Conn.). (Laping, N.J. et al. Molecular Pharmacology 62:58–64 (2002)).

## COc1ccc2nccc(-c3conc3-c3cccc(C)n3)c2c1 [Example 5, 6-Methoxy-4-[3-(6-methyl-pyridin-2-yl)-isoxazol-4-yl]-quinoline]
  IC50: ~118 nM
